Data: patent US20050203011A1, “Mitigating symptoms and behaviors of substance abuse by modulating GDNF or BDNF pathway activity” (The Regents of the University of California, priority 2003, published 2005)

Tests used:
[1] = in vivo; cited from earlier work
Long Evans rats = experiment: Ethanol self-administration in rats after intracerebroventricular (i.c.v.) microinjections; assay type: in vivo, rat; conditions: i.c.v. microinjection, intake 24 hours after treatment
Description: Adult male Long Evans rats were trained in the two-bottle choice ethanol self-administration procedure as described above for mice. Three weeks after ethanol exposure commenced, a 26 gauge cannula was placed into the right lateral ventricle (stereotaxic coordinates AP: −0.8, ML: −1.4, DV: −3.6, relative to bregma) of anesthetized subjects. Three weeks later, subjects received weekly i.c.v. microinjections of vehicle, Tat-RACK1, or the Tat-peptide (injection volume […]) at approximately 15:30, or 3.5 hours before lights out. Intake was measured 24 hours after treatment. All subjects received vehicle and Tat-RACK1 injections; a subset of subjects was also injected with the Tat-peptide. Cannula locations were verified histologically at the conclusion of the experiment.

BDNF [2] = experiment: BDNF secretion from dissociated hippocampal neurons (ELISA); assay type: cell-based, rat; conditions: 1 μM, 6 hours
Description: BDNF or NGF secretion was measured in media from dissociated hippocampal neurons or from striatal slices using Emax ImmunoAssay according to (Balkowiec and Katz (2000) J. Neurosci., 20: 7417-7423)) and (Heaton et al. (2003) Brain Res. Dev. Brain Res. 140: 237-252), respectively. BDNF or NGF concentrations were interpolated from the standard curves (linear range of 7.8-500 pg/ml).

ERK1/2 = ERK1/2 phosphorylation in SHSY5Y cells; assay type: cell-based, human; conditions: 10 μM ibogaine 3 hours, U0126 20 μM, PD98059 40 μM 30 minutes or PI-PLC 0.3 unit/ml 1 h pre-incubation
Description: ERK2 and pERK1/2 were detected by Western blot analysis with anti-ERK2 and pERK1/2 antibodies respectively. Line-graph depicts the mean ratio (pERK2/ERK2)±SD of 3 experiments. […] Panel C: Cells were pre-incubated with 0.3 unit/ml PI-PLC for 1 h (lane 3).

[3] = system: C57B1/6 mice or BDNF+/+ and BDNF± mice; experiment: Ethanol self-administration in mice (two-bottle choice); assay type: in vivo, mouse; conditions: for ethanol consumption: wildtype mice
Description: Voluntary ethanol intake in singly-housed adult male C57B1/6 mice or BDNF+/+ and BDNF±mice was established by placing a bottle containing 10% ethanol in tap water (v/v) on the home cage next to an identical bottle filled with tap water for at least 1 month. Only subjects that consumed at least 40% of their total fluid volume as ethanol were included in these studies. All injections (PBS/10% glycerol vehicle, Tat-KEP27, K252a and/or Tat-RACK1) were conducted at 15:00 hours; ethanol and water intake were measured 18 hours later at 09:00 hours. Treatments were tested using a within-subjects design; subjects received one or two injections per week. Chemicals were administered in injection volumes of 1-3 ml per 100 g body weight. The effect of a deprivation period on consumption was tested by allowing mice continuous access to a bottle of 20% ethanol in tap water and a bottle of tap water on the home cage for 2 weeks. The ethanol bottle was removed for 2 weeks. Intake of 20% ethanol and of water was measured for 4 days after the ethanol was reintroduced.

Trk receptor = target: T1, Trk receptor (Rattus norvegicus, UniProt Q63604); experiment: Trk phosphorylation in striatal slices (Western blot); assay type: cell-based; conditions: 1 μM Tat-RACK1 together with 200 nM K252a, 4 hours
T1 construct: from tissue; host or cells: striatal slices (dorsal striatum and NAc) of Sprague-Dawley rats
T1 sequence (Q63604 32-821): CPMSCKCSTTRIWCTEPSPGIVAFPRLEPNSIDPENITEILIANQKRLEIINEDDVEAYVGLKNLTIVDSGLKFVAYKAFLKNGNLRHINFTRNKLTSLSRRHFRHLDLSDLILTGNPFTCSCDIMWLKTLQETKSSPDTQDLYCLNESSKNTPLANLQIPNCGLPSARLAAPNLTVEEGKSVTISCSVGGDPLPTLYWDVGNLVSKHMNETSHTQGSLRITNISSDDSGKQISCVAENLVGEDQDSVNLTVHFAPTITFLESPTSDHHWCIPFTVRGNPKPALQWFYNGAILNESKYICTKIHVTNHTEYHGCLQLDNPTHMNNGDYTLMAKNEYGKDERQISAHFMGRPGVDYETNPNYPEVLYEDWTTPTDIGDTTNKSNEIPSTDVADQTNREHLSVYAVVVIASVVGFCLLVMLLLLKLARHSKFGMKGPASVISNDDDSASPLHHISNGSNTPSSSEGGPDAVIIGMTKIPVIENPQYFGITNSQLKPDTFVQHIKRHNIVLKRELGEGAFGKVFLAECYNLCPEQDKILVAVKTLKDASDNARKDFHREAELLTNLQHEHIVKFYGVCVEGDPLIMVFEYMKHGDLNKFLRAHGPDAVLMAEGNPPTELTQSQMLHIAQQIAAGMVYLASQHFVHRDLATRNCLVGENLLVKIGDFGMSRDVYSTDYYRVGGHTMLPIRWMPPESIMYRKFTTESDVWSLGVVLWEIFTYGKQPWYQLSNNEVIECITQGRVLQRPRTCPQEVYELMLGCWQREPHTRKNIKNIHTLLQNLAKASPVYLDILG
Description: Coronal striatal slices ([…]) were prepared from 3-4 week old male Sprague-Dawley rats. Slices were maintained for at least 1 hour in artificial cerebrospinal fluid (αCSF) containing (in mM): 126 NaCl, 1.2 KCl, 1.2 NaH2PO4, 0.01 MgCl2, 2.4 CaCl2, 18 NaHCO3 and 11 glucose saturated with 95% O2/5% CO2 at […]. […] Brain homogenates were prepared after in vivo protein transduction. Adult C57B1/6 mice were injected i.p. with vehicle or 4 mg/kg of Tat-RACK1. Four hours later, brains were immediately removed and homogenized and protein extracts were prepared as described above.
Samples ([…]) were resolved on a 10% SDS-PAGE and transferred to a nitrocellulose membrane. Membranes were probed with the appropriate antibodies and immunoreactivity was detected with enhanced chemilluminescence (Amersham Bioscience) and processed using the STORM system (Molecular Dynamic).

[4] = system: tyrosine hydroxylase (TH); experiment: Tyrosine hydroxylase (TH) protein levels in SHSY5Y cells; assay type: cell-based, human
Description: Panel A: SHSY5Y cells were treated with different concentrations (0, 10, 25, and 100 mM) of ethanol for 24 hours. TH protein levels and control Actin levels were determined by Western blot analysis. Histogram depicts the mean ratio (TI/actin)±SD of 3 experiments. Panel B: Cells were treated with media (control), 100 ng/ml of GDNF for 12 h (lane 1), 100 mM ethanol for 24 hours (lane 2), or 100 mM ethanol for 24 hours to which 100 ng/ml GDNF was added for the last 12 hours (lane 3). The cells were lysed for Western blot analysis. Histogram depicts the mean ratio (TH/actin)±SD of 3 experiments. […] Histogram depicts the mean ratio (TH/actin)±SD of 3 experiments.

BDNF [5] = experiment: BDNF expression in primary hippocampal cultures (RT-PCR); assay type: cell-based, rat; conditions: primary hippocampal neurons
Description: Sprague-Dawley rats (P0) were decapitated and hippocampi were dissected bilaterally. Cells were dissociated by enzyme digestion with papain followed by brief mechanical trituration and plated on poly-D-lysine treated flasks. Cells were plated (1×10^6 cells/chamber) and maintained in Neurobasal media supplemented with B27, penicillin, streptomycin and Glutamax-1 and maintained in culture for 3 weeks. Following treatment, total RNAs were isolated using Trizol reagent and reverse transcribed (RT) using the Reverse Transcription System kit. The RT products were used for analysis of the expression of BDNF and the control gene […] (GPDH) by polymerase chain reaction (PCR) described in (Yaka et al. (2003) J. Biol. Chem. 278: 9630-9638). The PCR products were photographed by Eagle Eye II (Stratagene), and quantified by using NIH Image 1.61.

[6] = system: primary hippocampal neurons; experiment: RACK1 / Tat-RACK1 nuclear localization in primary hippocampal neurons (confocal microscopy); assay type: cell-based, rat; conditions: 100 mM ethanol 30 minutes
Description: Primary hippocampal neurons were washed in cold PBS containing 0.1% Triton X-100, fixed in cold methanol and blocked in PBS containing 0.1% Triton X-100 and 3% Normal Goat Serum. lrmunostaining was performed with monoclonal monoclonal IgG HA antibodies (1:150). Staining was detected with anti FITC antibodies (1:500). Nuclei were detected with the nuclear marker TOTO-3 (1: 10000). Slides were viewed with a laser scanning confocal microscope (Zeiss LSM 510 Meta). Z-field images were processed by obtaining the middle Z field sections using LSM 5 Image Browse (Scion Corporation) and Adobe Photoshop (Adobe Systems Inc.). For immunocytochemistry used to detect the presence of Tat-RACK1 in the brain, C57 mice were injected i.p. with vehicle or 4 mg/kg Tat-RACK1. Animals were decapitated 4 hours post injection and brains were quickly removed and frozen at −50° C. in isopentane. Slide-mounted saggital striatal sections ([…]) were immersed for 10 minutes in cold (−20° C.) mixture of 75% methanol and 25% acetone, re-hydrated, rinsed in PBS and incubated in 10% normal donkey serum. Rat monoclonal anti-HA antibody (1:2,000 in PBS) was applied overnight in a humid chamber. […]

NGF = conditions: C57 mice, voluntary ethanol consumption, striatum and PFC
Description: Adult male C57B1/6 mice were decapitated 3 hours after the start of the dark cycle, for mice with access to ethanol, or 6 hours following i.p. injection of vehicle or Tat-RACK1 (4 mg/kg), for naïve animals. Brains were rapidly removed and bilateral tissue punches of the striatum and PFC were frozen in liquid nitrogen. BDNF, NGF and GPDH expression were analyzed by RT-PCR as described above for hippocampal cultures. The primers for NGF were designed as follows: […]

BDNF [7] = experiment: BDNF expression in vivo (RT-PCR of tissue punches); set-up: species or system mouse; conditions: C57 mice, voluntary consumption of 10% ethanol for 2 weeks
Source text: The primers for NGF were designed as follows: […]

Molecule: CC[C@H]1C[C@H]2C[C@H]3c4[nH]c5ccc(O)cc5c4CCN(C2)[C@@H]13 [Noribogaine]
- metabolite detection after ibogaine administration [1]: detected at high concentrations within 24 hours after administration

Molecule: YGRKKRRQRRR [Tat-peptide]
- ethanol intake (Long Evans rats): no effect
- secretion of BDNF (BDNF [2]): no change

Molecule: COc1cccc(-c2cc(=O)c3ccccc3o2)c1N [PD98059]
- ERK1/2 phosphorylation induced by ibogaine (ERK1/2): blocked

Molecule: COC(=O)[C@@]1(O)C[C@H]2O[C@]1(C)n1c3ccccc3c3c4c(c5c6ccccc6n2c5c31)C(=O)NC4 [K252a]
- reduction in ethanol intake by Tat-RACK1, co-injection with K252a ([3]; mice, Tat-RACK1 4 mg/kg + K252a): prevented the reduction in ethanol intake
- ethanol consumption ([3]; K252a 5 mg/kg i.p.): increased
- ethanol consumption ([3]; K252a 25 mg/kg i.p.): increased
- Tat-RACK1-induced Trk phosphorylation (Trk receptor): reduced

Molecule: N#CC(=C(/N)Sc1ccccc1N)/C(C#N)=C(\N)Sc1ccccc1N [U0126]
- ERK1/2 phosphorylation induced by ibogaine (ERK1/2): blocked

Molecule: CCO [ethanol]
- ethanol concentration resulting in an increase in TH immunoreactivity (as low as) [4]: 10 mM
- protein level of TH ([4]; ethanol 24 hours, dose-dependent): significant increase
- ethanol concentrations (as low as) that increased BDNF expression (BDNF [5]; 0.5 hours): 10 to 25 mM
- expression levels of BDNF (BDNF [5]; acute ethanol, dose- and time-dependent): increased
- BDNF expression (BDNF [5]; continuous ethanol 24 or 48 hours): reduced BDNF expression to below basal levels
- RACK1 nuclear translocation [6]: translocation of RACK1 into the nucleus
- expression of NGF (NGF): no change
- expression levels of BDNF in the prefrontal cortex (PFC) (BDNF [7]): but not the prefrontal cortex
- expression levels of BDNF in the striatum (BDNF [7]): significantly increased

B1: GDNF: Human glial-cell line derived neurotrophic factor (protein)
chain: SPDKQMAVLPRRERNRQAAAANPENSRGKGRRGQRGKNRGCVLTAIHLNVTDLGLGYETKEELIFRYCSGSCDAAETTYDKILKNLSRNRRLVSDKVGQACCRPIAFDDDLSFLDDNLVYHILRKHSAKRCGCI
- ethanol-induced increase in TH immunoreactivity ([4]; 100 mM ethanol 24 hours, GDNF 100 ng/ml or ibogaine 10 μM added for last 12 hours): inhibited
